Laboratory results published in patent US20240252677A1, “ONE-COMPONENT DELIVERY SYSTEM FOR NUCLEIC ACIDS” (The Trustees of the University of Pennsylvania, priority 2021, published 2024).
Read-outs that look alike come from different tables or passages of the source.

Key:
BALB/c mice [1] = details: cited from earlier work
[2] = Table 16, IAJDs marked a (Zhang et al., J. Am. Chem. Soc. 2021); IAJD 4 mg/mL, Luc-mRNA 0.10 mg/mL, acetate buffer 10 mM pH 4.0; cited from earlier work
HEK293T cells [3] = assay: In vitro Luc-mRNA transfection, luciferase luminescence expression in HEK293T cells; type: cell-based, human; design: unit not given here; details: HEK293T cells, Luc-mRNA 125 ng/well, n=3
Method in brief: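 HEK293T cells were transfected with nucleoside-modified firefly luciferase mRNA at 125 ng/well delivered in the test particles. TransIT and MC3-based LNPs at equal mRNA dose served as comparators. After 24 h (18-20 h in some runs) at 37° C the cells were lysed, and luciferase luminescence was read on a luminometer, in triplicate.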

HEK293T cells [4] = details: Table 16, IAJDs marked a (Zhang et al., J. Am. Chem. Soc. 2021); HEK 293T cells, 125 ng/well, n=3; cited from earlier work
spleen = assay: In vivo mRNA delivery, IVIS imaging of organs: spleen; design: species or system mice; key to Organs with luminescence: spleen: strong: Strong meant the luminescence intensity in that organ was relatively high, compared to other organs; weak: Weak meant the luminescence intensity in that organ was relatively low, compared to other organs; details: for Organs with luminescence: spleen (weak/strong): Table 14; for Organs with luminescence: spleen: Table 17, mice, IVIS, 4-6 h after injection, intensity relative to other organs
BALB/c mice [5] = assay: In vivo mRNA delivery in mice with DNPs, whole-body bioluminescence imaging (IVIS); details: Table 19; nonsymmetric IAJDs

Structure (SMILES) | In vivo activity (total flux, p/s) (BALB/c mice [1]; Table 18, symmetric IAJDs, results available in the literature) | In vivo activity (total flux, p/s) (BALB/c mice [1]; Table 20, corresponding symmetric IAJDs (literature per Table 18)) | PDI [2] | Size (d, nm) [2] [nm] | Luminescence (HEK293T cells [3]) | Luminescence (HEK293T cells [4]) | Organs with luminescence: spleen (weak/strong) (spleen; imaging 5 h after injection) | Organs with luminescence: spleen (spleen) | Organs with luminescence: spleen (weak/strong) (spleen; imaging 6 h after injection) | In vivo activity (total flux, p/s) (BALB/c mice [5])
CCCCCCCCCCCCOc1cc(COC(=O)CCCN2CCN(CCO)CC2)cc(OCCCCCCCCCCCC)c1 [IAJD 71, 3,5-Bis(dodecyloxy)benzyl 4-(4-(2-hydroxyethyl)piperazin-1-yl)butanoate] | 3.79 × 10^7 p/s | 3.79 × 10^7 p/s | 0.451 | 237 | 473,548 | 473,548 | spleen (strong) | spleen (strong) |  | 
CCCCCCCCCCCCCCOc1cc(COC(=O)CCCN2CCN(C)CC2)cc(OCCCCCCCCCCC)c1 [IAJD 105, 3-(Tetradecyloxy)-5-(undecyloxy)benzyl 4-(4-methylpiperazin-1-yl)butanoate] |  |  | 0.294 | 94 | 85 | 85 |  | spleen (weak) | spleen (weak) | 4.74 × 10^7 p/s
CCCCCCCCCCCCCCCCOc1cc(COC(=O)CCCN2CCN(C)CC2)cc(OCCCCCCCCCCCC)c1 [IAJD 106, 3-(Dodecyloxy)-5-(hexadecyloxy)benzyl 4-(4-methylpiperazin-1-yl)butanoate] |  |  | 0.275 | 105 | 309 | 309 |  | spleen (strong) | spleen (strong) | 3.48 × 10^7 p/s
CCCCCCCCCCCCCCCCCCOc1cc(COC(=O)CCCN2CCN(C)CC2)cc(OCCCCCCCCCCCC)c1 [IAJD 107, 3-(Dodecyloxy)-5-(octadecyloxy)benzyl 4-(4-methylpiperazin-1-yl)butanoate] |  |  | 0.279 | 146 | 93,745 | 93,745 |  | spleen (strong) | spleen (strong) | 2.19 × 10^7 p/s
